In patent publication EP2857399A1, “Compounds useful for the treatment of PDE5 inhibitor-poorly responsive erectile dysfunction” (GenKyoTex SA, priority 2013, dated 2015):

Test system: diabetic GK rats
Test: Erectile response to electrical stimulation of the cavernous nerve (ICP monitoring) in a rat model of type II diabetes mellitus associated erectile dysfunction with impaired sildenafil response
Assay type: in vivo, Goto-Kakizaki (GK) rats
Experimental: The efficacy of compounds of Formula (I) for restoring or increasing responsiveness to treatment with a PDE5 inhibitor (sildenafil) is assessed in a rat model of type II diabetes mellitus associated erectile dysfunction in Goto-Kakizaki (GK) rats. Those rats show the main features of the metabolic, hormonal and vascular disorders usually described in T2D patients (Portha et al., 2001, Diabetes 50 (Suppl. 1): S89-S93; Portha et al., 1991, Diabetes 40, 486-491).
Adult male Wistar and age-matched Goto-Kakizaki (GK) rats (obtained by repeated inbreeding of non-diabetic Wistar rats selected at the upper limit or normal distribution if glucose tolerance as described in Goto et al., 1975, Proc. Jpn Acad, 51, 80-5 are housed at least 7 days prior to the beginning of the experiments with free access to standard chow and water and maintained on an inversed 12 h dark/light cycle (10:00/22:00).
At 15 weeks of age, treatment period is started; n=24 GK rats (Groups 4 & 5) receive a dose of compound 5 (30 mg/kg) while n=24 GK (Groups 1 and 3) rats and n=12 Wistar (Group 2) rats receive an equivalent volume of vehicle (25% HPβCD) of compound 5 by daily oral gavage for 28 days.
On day 29th after starting treatment administration, the rats (19 weeks of age) undergo an evaluation of their erectile response measured after electrical stimulation (ES) of the cavernous nerve (CN) by monitoring intracavernous pressure (ICP). For this purpose, rats are anesthetized (urethane […]) after a 3-hour fasting period (necessary for plasma glucose dosage), their temperature maintained at 37°C using a homeothermic blanket. The carotid artery was catheterized to record blood pressure (BP) via a pressure transducer (Elcomatic 750, Glasgow, UK). Both jugular veins were also catheterised to allow intravenous injections. CN is surgically exposed at the lateral aspect of the prostate and mounted on a bipolar platinum electrode connected to an electrical stimulator (AMS 2100, Phymep, France).
As a consequence, there are 16 hours between animals receiving their final administration of compound 5 or vehicle and initiation of evaluation of their erectile function. Rats were anesthetized and then received a 1st intravenous injection (iv) 25%HPβCD, the vehicle of compound 5, 60 minutes prior to the evaluation period of treatment effect. All rats also received a 2nd iv injection of either sildenafil (Sequoia research, Pangbourne, UK) 0.3mg/kg (groups 3 & 5) or normal saline, the vehicle of sildenafil, (groups 1, 2, 4) 56 minutes after the first injection.
At T=-15 minutes, the continuous recording of BP and ICP started. […] Two stimulations of the CN at 15Hz, 1 ms for 45 s were performed to elicit an increase of ICP to certify the correct implantation of the catheter and to assess baseline erectile response prior treatment
At T=0 minute, 25% HPβCD was injected intravenously.
At T+4 minutes and T+30 minutes, the CN was stimulated at 10Hz, 1ms for 45s.At T+56 minutes, sildenafil (0.3mg/kg) or normal saline was intravenously injected.
At T+ 60 minutes, and at 3 minutes intervals thereafter, the CN was stimulated at 6V, 1 ms for 45 s by different stimulation frequencies (10 Hz then 0, 2.5, 5, 7.5, 12.5 and 15 Hz) in a randomized manner in order to assess the erectile responses. These different electrical stimulations were repeated twice in view of establishing a frequency-response curve for each animal.
At T+ 120 minutes, the recording ended. […]

Row | SMILES | erectile responses (AUC45/MAP) compared to healthy Wistar rats (acute sildenafil alone, iv single administration 0.3mg/kg, Figure 1A) | erectile responses to ES CN (acute sildenafil alone, iv single administration at 0.3mg/kg) | AUCtot/MAP following ES CN compared to control healthy Wistar rats (acute sildenafil 0.3 mg/kg combined with chronic compound 5 30mg/kg/day, Figure 1B) | AUCtot/MAP (pro-erectile facilitator effects) (chronic compound 5 30mg/kg/day combined with acute sildenafil iv 0.3mg/kg, p≤0.0001 vs. GK rats, 2-way ANOVA with interaction, figure 1B) | AUC45/MAP (pro-erectile facilitator effects) (chronic compound 5 30mg/kg/day combined with acute sildenafil iv 0.3mg/kg, p≤0.0001 vs. GK rats, 2-way ANOVA, Figure 1A) | erectile responses (AUC45/MAP) compared to healthy Wistar rats (chronic compound 5 alone at 30mg/kg/day, Figure 1A) | increase in AUCtot/MAP compared to each compound administered alone (combination of chronic compound 5 30mg/kg/day and acute sildenafil 0.3mg/kg, p≤0.0001 vs acute sildenafil, p≤0.05 vs chronic compound 5, Figure 1B) | AUCtot/MAP (erectile responses to ES CN) (compound 5 alone, 30mg/kg once daily oral for 4 weeks, compared to GK rats treated with vehicle, p=0.147, figure 1B) | AUC45/MAP (erectile responses to ES CN) (compound 5 alone, 30mg/kg once daily oral for 4 weeks, compared to GK rats treated with vehicle, p≤0.05, figure 1A)
1 | CCCc1nn(C)c2c(=O)[nH]c(-c3cc(S(=O)(=O)N4CCN(C)CC4)ccc3OCC)nc12 [sildenafil, reference compound] | significantly lower | pro-erectile facilitator effects |  |  |  |  |  |  | 
2 | CN(C)c1cccc(-c2c3c(=O)n(-c4ccccc4Cl)[nH]c3cc(=O)n2C)c1 [compound 5, 2-(2-chlorophenyl)-4-[3-(dimethylamino)phenyl]-5-methyl-1H-pyrazolo[4,3-c] pyridine-3,6(2H,5H)-dione] |  |  | not significantly different | further increased | further increased | significantly lower | statistically significant | no statistical difference | statistically greater overall erectile responses
